Patent US11512107B2, “Methods for assembly of tetracyclic compounds by stereoselective C9-C10 bond formation” (Trustees of Dartmouth College, priority 2018, dated 2022)

What was measured:
ERβ [1] = experiment: Alkaline phosphatase (ALP) activity in DU-145 prostate cancer cells expressing endogenous ERβ; format: cell-based, human; conditions: DU-145 cells, 24 hours, 5 μM
Description: FIG. 2 is a bar graph showing alkaline phosphatase activity in human DU-145 prostate cancer cells (17β-estradiol, Compound 100, and Compound 101 were evaluated at 5 μM).
The DU-145 prostate cancer cell line only expresses ERβ and can be used as a model to examine the activation of ERβ in the absence of any potential confounding signal driven by ERα. Alkaline phosphatase (ALP) expression is induced in an ER-dependent manner and has been used to characterize the activity of synthetic ER agonists and antagonists.
In order to examine the ability of Compound 100 and Compound 101 to activate ERβ in the context of a cell line expressing endogenous ERβ, DU-145 cells were treated for 24 hours with either 17β-estradiol, Compound 100, or Compound 101 and ALP activity derived from the cells was examined.

[2] = Initial in vivo toxicity studies
Text: In comparison to 17β-estradiol, Compound 100 and Compound 101 have a unique profile for selective agonism of ERβ (FIG. 1).

U251 and U87 cells [3] = experiment: Growth inhibition and viable cell counts of glioblastoma-derived cell lines; format: cell-based, human; conditions: U251 and U87, after 24 hours, versus TMZ
Description: FIG. 3A-3B are line graphs depicting (A) dose dependent growth inhibition of U251 and U87 cells treated with Compound 100, Compound 101, TMZ, and vehicle control DMSO (n=4) and (B) viable cell counts of U251 and U87 cells treated with Compound 100, Compound 101, TMZ, and vehicle control DMSO determined every 24 hours for 96 hours (n=4)
To determine the biological effect of Compound 100 and Compound 101, human glioblastoma-derived cell lines U251 and U87 were treated with varying concentrations of Compound 100, Compound 101, temazolomide (TMZ; a standard of care chemotherapeutic agent), or vehicle-toxicity control, dimethylsulfoxide (DMSO) used at final volumes that were identical to those used to attain all concentrations tested of Compound 100 and Compound 101.

ERβ [4] = target: ERβ (Homo sapiens, UniProt Q92731); experiment: ERβ agonist assay (functional activity at estrogen receptors, FIG. 1); format: cell-based; conditions: for selectivity over ERα: ERβ over ERα, relative to 17β-estradiol; for EC50: read-out: EC50 ERβ agonism
Description: FIG. 1 is a set of line graphs showing the results of ERβ and ERα agonist assays for Compounds 100 and 101.
Compounds 100 and 101 were evaluated for their functional activity at estrogen receptors (both ERα and ERβ). 17β-estradiol was used as a control, as it is appreciated to be a potent agonist of both ERα and ERβ.

[5] = test system: human neural stem cells as well as human astrocytes; experiment: Cell viability of non-tumour neural cells; format: cell-based; conditions: at the equivalent concentration
U251 and U87 cells [6] = experiment: Apoptosis by Annexin V / 7-AAD FACS analysis; format: cell-based, human; conditions: U251 and U87, 24 hours
Description: FIG. 3C is a flow cytometric analysis of U251 and U87 co-stained with Annexin V-FITC/7-AAD after treatment with Compound 100, Compound 101, TMZ, and vehicle control DMSO (n=4).
In order to elucidate the mechanism of this cell death, glioblastoma cells treated for 24 hours with Compound 100, Compound 101, TMZ, or DMSO control were analyzed for early and late apoptosis markers (Annexin V and 7-Aminoactinomycin D) by FACS analyses. […] Additionally, over a period of five days, morphological changes in U251 and U87 cells treated with Compound 100 and Compound 101 were tracked using the Incucyte live cell imaging system.

ERβ (Homo sapiens, UniProt Q92731), sequence (Q92731 whole entry): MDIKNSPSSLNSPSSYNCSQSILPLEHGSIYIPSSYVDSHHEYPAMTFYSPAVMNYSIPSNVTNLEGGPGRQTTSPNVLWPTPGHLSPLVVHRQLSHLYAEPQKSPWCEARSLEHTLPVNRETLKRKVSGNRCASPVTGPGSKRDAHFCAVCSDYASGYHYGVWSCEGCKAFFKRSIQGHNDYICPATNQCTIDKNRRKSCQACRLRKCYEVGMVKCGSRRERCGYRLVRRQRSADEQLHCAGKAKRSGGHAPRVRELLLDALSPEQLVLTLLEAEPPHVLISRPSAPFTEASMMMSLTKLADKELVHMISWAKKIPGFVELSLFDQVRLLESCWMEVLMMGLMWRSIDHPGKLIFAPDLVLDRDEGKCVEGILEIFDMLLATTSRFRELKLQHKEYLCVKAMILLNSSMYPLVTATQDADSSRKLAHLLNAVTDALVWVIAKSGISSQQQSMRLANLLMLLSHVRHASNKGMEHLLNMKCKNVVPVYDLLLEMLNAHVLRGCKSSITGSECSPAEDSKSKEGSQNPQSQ

| inhibition of glioma cell growth (IC50): fold lower concentration compared to TMZ (U251 and U87 cells [3]) [fold] | selectivity over ERα (ERβ [4]) [fold] | EC50 (ERβ [4]) [nM] | SMILES | induction of ALP activity (ERβ [1]) | in vivo toxicity [2] | cell viability of human neural stem cells and human astrocytes [5] | induction of apoptosis, fold higher than TMZ or DMSO controls (U251 and U87 cells [6]) [fold] |
| --- | --- | --- | --- | --- | --- | --- | --- |
| – | – | – | C[C@]12CC[C@@H]3c4ccc(O)cc4CC[C@H]3[C@@H]1CC[C@@H]2O [17β-estradiol] | effective in inducing ALP activity | – | – | – |
| 50 | ~6 | 1.9 | C[C@@]12CC[C@]3(C)C(=C1C[C@H](O)C2)CCc1cc(O)ccc13 [Compound 101, (9R,13S,16R)-9,13-dimethyl-7,9,11,12,13,15,16,17-octahydro-6H-cyclopenta[a]phenanthrene-3,16-diol] | – | neither compound is toxic | not affected | 7 |
| 50 | > 260 | 0.05 | C[C@]12CC[C@@]3(C)C(=C1C[C@@H](O)C2)CCc1cc(O)ccc13 [Compound 100, (9S,13R,16S)-9,13-dimethyl-7,9,11,12,13,15,16,17-octahydro-6H-cyclopenta[a]phenanthrene-3,16-diol] | – | neither compound is toxic | not affected | 7 |
